Experimental data published in US10472356B2, “Bicyclic ketone sulfonamide compounds” (AMGEN INC., priority 2015, dated 2019).

How the values were obtained:
human Nav1.7 [1] = biological target: T1, human Nav1.7 (Homo sapiens, UniProt Q15858); assay: Nav 1.7 In Vitro PatchXpress (PX) Assay; type: cell-based; conditions: HEK 293 cells stably transfected with human Nav1.7; PatchXpress whole cell voltage clamp; partially inactivated state (holding potential yielding 20 to 50% inactivation); read-out: hNav1.7 PX IC50
T1 construct: expressed in transfected cells; host or cells: HEK293
In short: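 Whole-cell voltage clamp on HEK 293 cells stably expressing human Nav1.7 (automated patch), holding potential giving 20–50% inactivation; 20 ms pulses to −10 mV at 0.1 Hz. Single compound concentration applied 3 min, peak current inhibition measured; IC50 fitted from 3–5 cells per concentration.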

human Nav1.7 [2] = biological target: T1, human Nav1.7; assay: Nav 1.7 IWB In Vitro Assay (IonWorks Barracuda); type: cell-based; conditions: HEK293 cells stably transfected with human Nav 1.7; IonWorks Barracuda population patch-clamp; cells clamped to −20 mV for 4 minutes with compound; 26th pulse; read-out: hNav1.7 IWB IC50
In short: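 Population patch clamp of HEK293 cells stably expressing human Nav 1.7: 26 pulses to −20 mV (150 ms, 5 Hz) from −110 mV, then 4 min at −20 mV with compound, 3 s recovery at −110 mV and the train repeated. % inhibition of 26th-pulse peak current vs no compound; IC50 from concentration-response curves.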

T1 sequence (Q15858 whole entry): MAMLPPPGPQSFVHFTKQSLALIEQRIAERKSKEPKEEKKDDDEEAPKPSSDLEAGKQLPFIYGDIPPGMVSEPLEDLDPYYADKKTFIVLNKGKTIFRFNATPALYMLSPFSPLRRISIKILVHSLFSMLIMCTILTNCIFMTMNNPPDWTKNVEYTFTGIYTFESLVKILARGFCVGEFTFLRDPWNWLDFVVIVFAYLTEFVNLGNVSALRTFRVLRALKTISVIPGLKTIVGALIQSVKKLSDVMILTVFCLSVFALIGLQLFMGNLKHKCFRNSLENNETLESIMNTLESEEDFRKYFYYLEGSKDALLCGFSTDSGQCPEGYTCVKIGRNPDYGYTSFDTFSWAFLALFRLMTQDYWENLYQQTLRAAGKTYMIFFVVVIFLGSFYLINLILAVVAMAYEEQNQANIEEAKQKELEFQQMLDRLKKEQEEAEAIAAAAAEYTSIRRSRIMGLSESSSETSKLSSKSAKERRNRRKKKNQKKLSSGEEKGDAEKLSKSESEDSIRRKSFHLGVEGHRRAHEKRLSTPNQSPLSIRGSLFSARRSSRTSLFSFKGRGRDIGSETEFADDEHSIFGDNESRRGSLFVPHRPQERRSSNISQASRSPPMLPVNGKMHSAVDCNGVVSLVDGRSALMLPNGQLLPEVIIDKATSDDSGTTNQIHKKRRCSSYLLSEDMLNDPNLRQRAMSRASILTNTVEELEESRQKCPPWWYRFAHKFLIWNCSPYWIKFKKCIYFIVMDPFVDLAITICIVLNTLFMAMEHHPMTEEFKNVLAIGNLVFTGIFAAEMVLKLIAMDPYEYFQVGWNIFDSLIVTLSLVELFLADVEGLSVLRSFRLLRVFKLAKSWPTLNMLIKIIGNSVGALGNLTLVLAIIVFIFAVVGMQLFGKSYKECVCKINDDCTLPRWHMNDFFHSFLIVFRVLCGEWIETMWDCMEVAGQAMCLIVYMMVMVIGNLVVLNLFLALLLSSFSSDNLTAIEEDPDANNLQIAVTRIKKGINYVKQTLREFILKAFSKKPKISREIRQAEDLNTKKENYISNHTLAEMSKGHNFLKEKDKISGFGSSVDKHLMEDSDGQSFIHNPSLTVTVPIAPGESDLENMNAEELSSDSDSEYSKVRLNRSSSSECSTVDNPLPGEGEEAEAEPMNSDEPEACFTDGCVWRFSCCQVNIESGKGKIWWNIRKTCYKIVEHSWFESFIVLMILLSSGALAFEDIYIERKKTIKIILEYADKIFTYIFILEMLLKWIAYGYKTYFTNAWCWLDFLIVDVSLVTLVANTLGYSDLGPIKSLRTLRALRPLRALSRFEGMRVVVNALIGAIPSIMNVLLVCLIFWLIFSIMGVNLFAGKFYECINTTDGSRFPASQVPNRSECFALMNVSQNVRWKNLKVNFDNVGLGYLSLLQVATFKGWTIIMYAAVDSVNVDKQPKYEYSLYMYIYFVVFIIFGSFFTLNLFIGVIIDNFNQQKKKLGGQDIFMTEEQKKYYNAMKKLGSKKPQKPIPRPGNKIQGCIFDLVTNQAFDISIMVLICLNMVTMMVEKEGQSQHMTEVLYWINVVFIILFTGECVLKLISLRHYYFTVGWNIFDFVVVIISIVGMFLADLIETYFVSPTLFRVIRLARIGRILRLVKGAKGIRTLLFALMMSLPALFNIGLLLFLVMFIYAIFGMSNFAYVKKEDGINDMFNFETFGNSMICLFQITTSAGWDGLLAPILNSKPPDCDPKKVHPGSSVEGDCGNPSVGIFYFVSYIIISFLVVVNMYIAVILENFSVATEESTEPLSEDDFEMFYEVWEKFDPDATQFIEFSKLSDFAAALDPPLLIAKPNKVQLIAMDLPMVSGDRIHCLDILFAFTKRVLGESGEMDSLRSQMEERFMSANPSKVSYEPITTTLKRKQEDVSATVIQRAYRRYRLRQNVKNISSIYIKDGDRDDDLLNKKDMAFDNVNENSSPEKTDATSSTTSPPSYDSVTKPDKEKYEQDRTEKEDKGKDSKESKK

Compound | IC50 (human Nav1.7 [1]) [µM] | IC50 (human Nav1.7 [2]) [µM]
COc1cc(-c2cccc(OC(F)F)c2)c(F)cc1-n1c2c(ccc1=O)CN(S(=O)(=O)Nc1ccon1)CC2 (single isomer, unassigned) [Example 19-M, M-1-(3′-(difluoromethoxy)-2-fluoro-5-methoxy-4-biphenylyl)-N-3-isoxazolyl-2-oxo-1,5,7,8-tetrahydro-1,6-naphthyridine-6(2H)-sulfonamide] | 17.1 | 1.94
COc1cc(-c2ccc(F)c(F)c2)c(F)cc1-n1c2c(ccc1=O)CN(S(=O)(=O)Nc1ccon1)CC2 (single isomer, unassigned) [Example 20-M, M-N-3-isoxazolyl-2-oxo-1-(2,3′,4′-trifluoro-5-methoxy-4-biphenylyl)-1,5,7,8-tetrahydro-1,6-naphthyridine-6(2H)-sulfonamide] | > 30 | 2.67
COc1cc(-c2ccc(C)c(F)c2)c(F)cc1-n1c2c(ccc1=O)CN(S(=O)(=O)Nc1ccon1)CC2 (single isomer, unassigned) [Example 21-M, M-1-(2,3′-difluoro-5-methoxy-4′-methyl-4-biphenylyl)-N-3-isoxazolyl-2-oxo-1,5,7,8-tetrahydro-1,6-naphthyridine-6(2H)-sulfonamide] | 4.94 | 1.55
COc1cc(-c2ccc(F)c(C)c2)c(F)cc1-n1c2c(ccc1=O)CN(S(=O)(=O)Nc1ccon1)CC2 (single isomer, unassigned) [Example 22-M, M-1-(2,4′-difluoro-5-methoxy-3′-methyl-4-biphenylyl)-N-3-isoxazolyl-2-oxo-1,5,7,8-tetrahydro-1,6-naphthyridine-6(2H)-sulfonamide] | > 30 | > 10
COc1cc(-c2ccc(F)c(F)c2)c(F)cc1-n1c2c(ccc1=O)CN(S(=O)(=O)Nc1ncccn1)CC2 (single isomer, unassigned) [Example 28-M, M-2-oxo-N-2-pyrimidinyl-1-(2,3′,4′-trifluoro-5-methoxy-4-biphenylyl)-1,5,7,8-tetrahydro-1,6-naphthyridine-6(2H)-sulfonamide] | > 30 | > 10
COc1cc(-c2ccc(F)c(F)c2)c(F)cc1-n1c2c(ccc1=O)CN(S(=O)(=O)Nc1ncccn1)CC2 (single isomer, unassigned) [Example 28-P, P-2-oxo-N-2-pyrimidinyl-1-(2,3′,4′-trifluoro-5-methoxy-4-biphenylyl)-1,5,7,8-tetrahydro-1,6-naphthyridine-6(2H)-sulfonamide] | 0.499 | 0.0805
COc1cc(-c2ccc(F)c(C)c2)c(F)cc1-n1c2c(ccc1=O)CN(S(=O)(=O)Nc1ncccn1)CC2 (single isomer, unassigned) [Example 29-M, M-1-(2,4′-difluoro-5-methoxy-3′-methyl-4-biphenylyl)-2-oxo-N-2-pyrimidinyl-1,5,7,8-tetrahydro-1,6-naphthyridine-6(2H)-sulfonamide] | > 30 | > 2.5
COc1cc(-c2ccc(F)c(C)c2)c(F)cc1-n1c2c(ccc1=O)CN(S(=O)(=O)Nc1ncccn1)CC2 (single isomer, unassigned) [Example 29-P, P-1-(2,4′-difluoro-5-methoxy-3′-methyl-4-biphenylyl)-2-oxo-N-2-pyrimidinyl-1,5,7,8-tetrahydro-1,6-naphthyridine-6(2H)-sulfonamide] | 0.568 | 0.0555
COc1cc(-c2ccc(Cl)c(C)c2)c(F)cc1-n1c2c(ccc1=O)CN(S(=O)(=O)Nc1ncccn1)CC2 (single isomer, unassigned) [Example 30-M, M-1-(4′-chloro-2-fluoro-5-methoxy-3′-methyl-4-biphenylyl)-2-oxo-N-2-pyrimidinyl-1,5,7,8-tetrahydro-1,6-naphthyridine-6(2H)-sulfonamide] | 24.9 | 3.91
COc1cc(-c2cc(F)cc(Cl)c2)c(F)cc1-n1c2c(ccc1=O)CN(S(=O)(=O)Nc1ncccn1)CC2 (single isomer, unassigned) [Example 31-M, M-1-(3′-chloro-2,5′-difluoro-5-methoxy-4-biphenylyl)-2-oxo-N-2-pyrimidinyl-1,5,7,8-tetrahydro-1,6-naphthyridine-6(2H)-sulfonamide] | 5.02 | 2.73
COc1cc(-c2cc(F)cc(Cl)c2)c(F)cc1-n1c2c(ccc1=O)CN(S(=O)(=O)Nc1ncccn1)CC2 (single isomer, unassigned) [Example 31-P, P-1-(3′-chloro-2,5′-difluoro-5-methoxy-4-biphenylyl)-2-oxo-N-2-pyrimidinyl-1,5,7,8-tetrahydro-1,6-naphthyridine-6(2H)-sulfonamide] | 0.205 | 0.0369
COc1cc(-c2ccc(F)c(F)c2)c(F)cc1-n1c2c(ccc1=O)CN(S(=O)(=O)Nc1cccnn1)CC2 (single isomer, unassigned) [Example 32-M, M-2-oxo-N-3-pyridazinyl-1-(2,3′,4′-trifluoro-5-methoxy-4-biphenylyl)-1,5,7,8-tetrahydro-1,6-naphthyridine-6(2H)-sulfonamide] | 20.6 | 1
COc1cc(-c2cc(F)cc(Cl)c2)c(F)cc1-n1c2c(ccc1=O)CN(S(=O)(=O)Nc1cccnn1)CC2 (single isomer, unassigned) [Example 38-M, M-1-(3′-chloro-2,5′-difluoro-5-methoxy-4-biphenylyl)-2-oxo-N-3-pyridazinyl-1,5,7,8-tetrahydro-1,6-naphthyridine-6(2H)-sulfonamide] | 3.12 | 0.662
COc1cc(-c2cccc(C(F)(F)F)c2)c(Cl)cc1-n1c2c(ccc1=O)CN(S(=O)(=O)Nc1cccnn1)CC2 (single isomer, unassigned) [Example 91-M, M-1-(2-chloro-5-methoxy-3′-(trifluoromethyl)-[1,1′-biphenyl]-4-yl)-2-oxo-N-(pyridazin-3-yl)-1,2,7,8-tetrahydro-1,6-naphthyridine-6(5H)-sulfonamide] | 0.681 | 0.154
COc1cc(-c2ccc(F)c(C)c2)c(Cl)cc1-n1c2c(ccc1=O)CN(S(=O)(=O)Nc1cccnn1)CC2 (single isomer, unassigned) [Example 92-M, M-1-(2-chloro-4′-fluoro-5-methoxy-3′-methyl-[1,1′-biphenyl]-4-yl)-2-oxo-N-(pyridazin-3-yl)-1,2,7,8-tetrahydro-1,6-naphthyridine-6(5H)-sulfonamide] | 3.01 | 0.282
COc1cc(-c2ccc(F)c(C)c2)c(Cl)cc1-n1c2c(ccc1=O)CN(S(=O)(=O)Nc1cccnn1)CC2 (single isomer, unassigned) [Example 92-P, P-1-(2-chloro-4′-fluoro-5-methoxy-3′-methyl-[1,1′-biphenyl]-4-yl)-2-oxo-N-(pyridazin-3-yl)-1,2,7,8-tetrahydro-1,6-naphthyridine-6(5H)-sulfonamide] | 0.0414 | 0.0059
COc1cc(-c2ccc(F)c(C)c2)c(C)cc1-n1c2c(ccc1=O)CN(S(=O)(=O)Nc1cccnn1)CC2 (single isomer, unassigned) [Example 93-M, M-1-(4′-fluoro-5-methoxy-2,3′-dimethyl-[1,1′-biphenyl]-4-yl)-2-oxo-N-(pyridazin-3-yl)-1,2,7,8-tetrahydro-1,6-naphthyridine-6(5H)-sulfonamide] | 1.8 | 0.27
COc1cc(-c2ccc(F)c(C)c2)c(C)cc1-n1c2c(ccc1=O)CN(S(=O)(=O)Nc1cccnn1)CC2 (single isomer, unassigned) [Example 93-P, P-1-(4′-fluoro-5-methoxy-2,3′-dimethyl-[1,1′-biphenyl]-4-yl)-2-oxo-N-(pyridazin-3-yl)-1,2,7,8-tetrahydro-1,6-naphthyridine-6(5H)-sulfonamide] | 0.116 | 0.0218
COc1cc(-c2cc(F)cc(F)c2)c(F)cc1-n1c2c(ccc1=O)[C@@H](C)N(S(=O)(=O)Nc1ccon1)CC2 [Example 3-A-P, P-(5R)-N-3-isoxazolyl-5-methyl-2-oxo-1-(2,3′,5′-trifluoro-5-methoxy-4-biphenylyl)-1,5,7,8-tetrahydro-1,6-naphthyridine-6(2H)-sulfonamide] | > 1 | 1.2
COc1cc(-c2cc(F)cc(F)c2)c(F)cc1-n1c2c(ccc1=O)[C@H](C)N(S(=O)(=O)Nc1ccon1)CC2 [Example 3-B-M, M-(5S)-N-3-isoxazolyl-5-methyl-2-oxo-1-(2,3′,5′-trifluoro-5-methoxy-4-biphenylyl)-1,5,7,8-tetrahydro-1,6-naphthyridine-6(2H)-sulfonamide] | > 1 | > 30
COc1cc(-c2cc(F)cc(F)c2)c(F)cc1-n1c2c(ccc1=O)CN(S(=O)(=O)Nc1ccon1)[C@H](C)C2 [Example 3-D-M, M-(7R)-N-3-isoxazolyl-7-methyl-2-oxo-1-(2,3′,5′-trifluoro-5-methoxy-4-biphenylyl)-1,5,7,8-tetrahydro-1,6-naphthyridine-6(2H)-sulfonamide] | > 1 | > 7.5
COc1cc(-c2cc(F)cc(C(F)(F)F)c2)c(F)cc1-n1c2c(ccc1=O)CN(S(=O)(=O)Nc1cccnn1)CC2 [Example 41, P-1-(2,3′-difluoro-5-methoxy-5′-(trifluoromethyl)-4-biphenylyl)-2-oxo-N-3-pyridazinyl-1,5,7,8-tetrahydro-1,6-naphthyridine-6(2H)-sulfonamide] | 0.033 | 0.0018
